How the values were obtained:
TDO (A172) = biological target: T1, TDO (A172) (Homo sapiens, UniProt P48775); test: A172 Kynurenine cell based assay; conditions: A172 human glioblastoma cells expressing TDO; kynurenine production, 48 hours
T1 construct: This assay utilised cancer cells which expressed either TDO (A172) or IDO (SKOV3); endogenous in cells; host or cells: A172 (human glioblastoma)
Description: (§1) Exemplary compounds of the invention were prepared, and tested to determine their effect as TDO and/or IDO inhibitors. Two different assays were employed: 1. a cell-based assay for detecting the effect of test compounds on kynurenine production in two different cancer cell types. This assay utilised cancer cells which expressed either TDO (A172) or IDO (SKOV3) and as such was used as a means of testing compound activity at these two enzymes in a cell-based context. 2. a TDO and IDO biochemical coupled assay which utilised recombinantly produced and purified TDO and IDO enzymes in combination with the enzyme formamidase. This coupled enzyme system allowed conversion of N-formylkynurenine produced by TDO or IDO activity to kynurenine which was then quantified by fluorescence following addition of Erhlich's Reagent The protocols for these are set out below.
(§2) Cell Based Assay for Detection of Kynurenine Produced by TDO and/or IDO
(§3) A172 (human glioblastoma) and SKOV3 (human ovarian adenocarcinoma) cells were seeded in a 96 well plate at 30,000 or 40,000 cells per well respectively in phenol red-free RPMI supplemented with 10% FCS, 2 mM L-glutamine and 500 µM L-tryptophan. IDO expression was induced in the SKOV3 cells by the addition of 500 ng/ml IFN-γ. Cells were incubated at 37° C. with or without the addition of test compound. After 48 hours, the cells were removed by centrifugation and Erhlich's reagent was added to the supernatant. The Erhlich's reagent was incubated for 5 minutes before the absorbance was read at 490 nm.

IDO (SKOV3) = biological target: T2, IDO (SKOV3) (Homo sapiens, UniProt P14902); test: SKOV3 Kynurenine cell based assay; conditions: SKOV3 human ovarian adenocarcinoma cells, IDO induced by IFN-γ; kynurenine production, 48 hours
T2 construct: IDO expression was induced in the SKOV3 cells by the addition of 500 ng/ml IFN-γ; endogenous in cells; host or cells: SKOV3 (human ovarian adenocarcinoma), IFN-γ induced
T2 sequence (P14902 whole entry): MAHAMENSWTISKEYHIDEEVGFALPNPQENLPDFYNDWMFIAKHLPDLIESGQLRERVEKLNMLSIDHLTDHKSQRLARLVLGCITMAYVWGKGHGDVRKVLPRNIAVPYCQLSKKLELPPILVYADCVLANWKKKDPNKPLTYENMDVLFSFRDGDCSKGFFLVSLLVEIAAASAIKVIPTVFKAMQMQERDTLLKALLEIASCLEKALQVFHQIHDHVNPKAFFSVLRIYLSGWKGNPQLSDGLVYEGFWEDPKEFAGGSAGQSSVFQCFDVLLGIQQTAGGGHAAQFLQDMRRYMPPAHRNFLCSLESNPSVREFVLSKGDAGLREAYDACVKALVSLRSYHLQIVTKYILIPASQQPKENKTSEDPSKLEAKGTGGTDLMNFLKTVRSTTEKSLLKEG
Description: as §1, §2
as §3, with “supernatant.” for “supernatant. The Erhlich's reagent was incubated for 5 minutes before the absorbance was read at 490 nm.”

T1 sequence (P48775 whole entry): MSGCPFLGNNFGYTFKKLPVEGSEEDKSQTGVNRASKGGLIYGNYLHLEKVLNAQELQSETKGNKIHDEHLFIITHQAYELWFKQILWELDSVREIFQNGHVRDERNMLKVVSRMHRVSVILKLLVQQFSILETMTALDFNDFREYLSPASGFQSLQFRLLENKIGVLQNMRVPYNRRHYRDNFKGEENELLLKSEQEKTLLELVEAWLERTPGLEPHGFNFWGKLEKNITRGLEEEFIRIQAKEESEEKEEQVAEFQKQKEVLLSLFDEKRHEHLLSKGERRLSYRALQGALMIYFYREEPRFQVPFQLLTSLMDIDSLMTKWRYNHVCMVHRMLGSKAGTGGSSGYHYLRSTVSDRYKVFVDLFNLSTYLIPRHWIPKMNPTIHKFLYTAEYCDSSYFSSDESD

Row | SMILES | A172 Kynurenine cell based assay pIC50 (TDO (A172)) | SKOV3 Kynurenine cell based assay pIC50 (IDO (SKOV3))
1 | O=S(=O)(Nc1cnoc1-c1ccccc1)c1ccc2ccccc2c1 [Compound 53] | + (+ = pIC50 4.00-4.49) | ++ (++ = pIC50 4.50-5.49)
2 | NCC(=O)Nc1oncc1-c1ccccc1 [Compound 73] | +++ (+++ = pIC50 ≥ 5.50) | ++ (++ = pIC50 4.50-5.49)
3 | O=C(Nc1oncc1-c1ccccc1)c1ccccn1 [Compound 40] | +++ (+++ = pIC50 ≥ 5.50) | ++ (++ = pIC50 4.50-5.49)
4 | Nc1oncc1-c1ccccc1F [Compound 20] | ++ (++ = pIC50 4.50-5.49) | ++ (++ = pIC50 4.50-5.49)
5 | c1ccc(-n2nnnc2NCC2CCCCC2)cc1 [Compound 52] | + (+ = pIC50 4.00-4.49) | +++ (+++ = pIC50 ≥ 5.50)
6 | O=C(Nc1oncc1-c1ccccc1)C1CCCCN1 (stereo not shown) [Compound 44] | +++ (+++ = pIC50 ≥ 5.50) | ++ (++ = pIC50 4.50-5.49)
7 | CS(=O)(=O)c1ccc(Cl)c(S(=O)(=O)Nc2cnoc2-c2ccccc2)c1 [Compound 55] | +/− (+/− = pIC50 < 4.00) | + (+ = pIC50 4.00-4.49)
8 | Oc1oncc1-c1ccccc1 [Compound 23] | ++ (++ = pIC50 4.50-5.49) | +/− (+/− = pIC50 < 4.00)
9 | O=S(=O)(Nc1oncc1-c1ccccc1)c1cccnc1 [Compound 59] | +/− (+/− = pIC50 < 4.00) | + (+ = pIC50 4.00-4.49)
10 | O=S(=O)(Nc1cnoc1-c1ccccc1)c1cc(Cl)ccc1Cl [Compound 54] | + (+ = pIC50 4.00-4.49) | ++ (++ = pIC50 4.50-5.49)
11 | O=C(Nc1oncc1-c1ccccc1)C(O)C1CCCCC1 (stereo not shown) [Compound 74] | + (+ = pIC50 4.00-4.49) | + (+ = pIC50 4.00-4.49)
12 | O=C(CC1CCCCC1)Nc1oncc1-c1ccccc1 [Compound 24] | ++ (++ = pIC50 4.50-5.49) | ++ (++ = pIC50 4.50-5.49)
13 | CN1CCCCC1C(=O)Nc1oncc1-c1ccccc1 (stereo not shown) [Compound 61] | + (+ = pIC50 4.00-4.49) | +/− (+/− = pIC50 < 4.00)
14 | O=C(O)CCC(=O)Nc1oncc1-c1ccccc1 [Compound 33] | + (+ = pIC50 4.00-4.49) | +/− (+/− = pIC50 < 4.00)
15 | Nc1oncc1-c1ccccc1Cl [Compound 15] | + (+ = pIC50 4.00-4.49) | ++ (++ = pIC50 4.50-5.49)
16 | Nc1oncc1-c1ccccn1 [Compound 11] | ++ (++ = pIC50 4.50-5.49) | + (+ = pIC50 4.00-4.49)
17 | COc1ccc(-c2cnoc2N)cc1 [Compound 4] | ++ (++ = pIC50 4.50-5.49) | ++ (++ = pIC50 4.50-5.49)
18 | O=S(=O)(Nc1cnoc1-c1ccccc1)N1CCCCC1 [Compound 56] | +/− (+/− = pIC50 < 4.00) | ++ (++ = pIC50 4.50-5.49)
19 | Cc1ccc(-c2cnoc2N)cc1 [Compound 3] | +++ (+++ = pIC50 ≥ 5.50) | ++ (++ = pIC50 4.50-5.49)
20 | O=C(Nc1oncc1-c1ccccc1)C(O)c1ccccc1 (stereo not shown) [Compound 76] | ++ (++ = pIC50 4.50-5.49) | + (+ = pIC50 4.00-4.49)
21 | CN1CCC(C(=O)Nc2oncc2-c2ccccc2)CC1 [Compound 36] | ++ (++ = pIC50 4.50-5.49) | + (+ = pIC50 4.00-4.49)
22 | CNCC(=O)Nc1oncc1-c1ccccc1 [Compound 71] | ++ (++ = pIC50 4.50-5.49) | + (+ = pIC50 4.00-4.49)
23 | CNC(=O)CCC(=O)Nc1oncc1-c1ccccc1 [Compound 65] | +++ (+++ = pIC50 ≥ 5.50) | ++ (++ = pIC50 4.50-5.49)
24 | O=C(Nc1oncc1-c1ccccc1)c1ccccc1 [Compound 18] | ++ (++ = pIC50 4.50-5.49) | ++ (++ = pIC50 4.50-5.49)

Row | SMILES | A172 Kynurenine cell based assay pIC50 (TDO (A172)) | SKOV3 Kynurenine cell based assay pIC50 (IDO (SKOV3))
25 | CS(=O)(=O)N1CCC(C(=O)Nc2oncc2-c2ccccc2)CC1 [Compound 38] | ++ (++ = pIC50 4.50-5.49) | + (+ = pIC50 4.00-4.49)
26 | O=C(CCO)Nc1oncc1-c1ccccc1 [Compound 41] | +++ (+++ = pIC50 ≥ 5.50) | ++ (++ = pIC50 4.50-5.49)
27 | CC(=O)N1CCC(C(=O)Nc2oncc2-c2ccccc2)CC1 [Compound 35] | ++ (++ = pIC50 4.50-5.49) | + (+ = pIC50 4.00-4.49)
28 | CC(C)(O)C(=O)Nc1oncc1-c1ccccc1 [Compound 64] | ++ (++ = pIC50 4.50-5.49) | + (+ = pIC50 4.00-4.49)
29 | CC(C)CS(=O)(=O)Nc1oncc1-c1ccccc1 [Compound 31] | +/− (+/− = pIC50 < 4.00) | ++ (++ = pIC50 4.50-5.49)
30 | COCC(=O)Nc1oncc1-c1ccccc1 [Compound 25] | +++ (+++ = pIC50 ≥ 5.50) | ++ (++ = pIC50 4.50-5.49)
31 | CNc1oncc1-c1ccccc1 [Compound 21] | ++ (++ = pIC50 4.50-5.49) | ++ (++ = pIC50 4.50-5.49)
32 | CC(C)S(=O)(=O)Nc1oncc1-c1ccccc1 [Compound 30] | ++ (++ = pIC50 4.50-5.49) | + (+ = pIC50 4.00-4.49)
33 | O=C(Nc1cnoc1-c1ccccc1)c1ccccc1 [Compound 77] | +/− (+/− = pIC50 < 4.00) | + (+ = pIC50 4.00-4.49)
34 | Cc1noc(N)c1-c1ccc(Cl)cc1 [Compound 9] | ++ (++ = pIC50 4.50-5.49) | + (+ = pIC50 4.00-4.49)
35 | O=C(Nc1oncc1-c1ccccc1)c1ccncc1 [Compound 39] | + (+ = pIC50 4.00-4.49) | ++ (++ = pIC50 4.50-5.49)
36 | O=S(=O)(Nc1cncn1-c1ccccc1)c1ccccc1 [Compound 79] | +/− (+/− = pIC50 < 4.00) | ++ (++ = pIC50 4.50-5.49)
37 | Nc1oncc1-c1cccnc1 [Compound 16] | ++ (++ = pIC50 4.50-5.49) | ++ (++ = pIC50 4.50-5.49)
38 | Cc1noc(N)c1-c1ccccc1 [Compound 10] | ++ (++ = pIC50 4.50-5.49) | + (+ = pIC50 4.00-4.49)
39 | Nc1oncc1-c1ccccc1CCO [Compound 78] | ++ (++ = pIC50 4.50-5.49) | + (+ = pIC50 4.00-4.49)
40 | O=S(=O)(Cc1ccccc1)Nc1oncc1-c1ccccc1 [Compound 29] | + (+ = pIC50 4.00-4.49) | ++ (++ = pIC50 4.50-5.49)
41 | OCCCNc1oncc1-c1ccccc1 [Compound 42] | +++ (+++ = pIC50 ≥ 5.50) | + (+ = pIC50 4.00-4.49)
42 | CN(C)CCC(=O)Nc1oncc1-c1ccccc1 [Compound 69] | +++ (+++ = pIC50 ≥ 5.50) | + (+ = pIC50 4.00-4.49)
43 | Nc1oncc1-c1ccccc1O [Compound 68] | ++ (++ = pIC50 4.50-5.49) | + (+ = pIC50 4.00-4.49)
44 | Nc1oncc1-c1ccccc1[N+](=O)[O-] [Compound 67] | +/− (+/− = pIC50 < 4.00) | + (+ = pIC50 4.00-4.49)
45 | COc1ccccc1-c1cnoc1-c1ccccc1 [Compound 51] | ++ (++ = pIC50 4.50-5.49) | ++ (++ = pIC50 4.50-5.49)
46 | O=C(Nc1nnnn1-c1ccccc1)c1ccccc1 [Compound 70] | ++ (++ = pIC50 4.50-5.49) | ++ (++ = pIC50 4.50-5.49)
47 | CS(=O)(=O)NCCC(=O)Nc1oncc1-c1ccccc1 [Compound 48] | ++ (++ = pIC50 4.50-5.49) | +/− (+/− = pIC50 < 4.00)

Reference: patent US10047074B2, “Pharmaceutical compound” (IOmet Pharma Ltd., priority 2014, dated 2018)
